The source of these data is ChEMBL document CHEMBL1201862, “PubChem BioAssay data set” (2004).

The structures appear in SMILES notation.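 Values below derive from 48-hour exposures of cells grown in 96-well plates, with endpoints linearly interpolated between the two concentrations bracketing the appropriate inhibition level. GI50: concentration for 50% inhibition of growth.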 Calls of active or inactive are those of the source. No stated cut-off is given here; in the data, active = GI50 up to about 1.1 µM and inactive = higher. Bounds are passed on as bounds.

Holding throughout (experiment): NCI-60 cell line screen, 48 h
For assay [1], the system named is KM12.
Assay [2] concerns M14.
Assay [3] has as its system OVCAR-4.
The test system of assay [4] is NCI/ADR-RES.
The test system of assay [5] is HCC 2998.
Assay [6] relates to UO-31.
For assay [7], the system named is MCF7.
The test system of assay [8] is UACC-62.
The subject of assay [9] is BT-549.
The test system of assay [10] is MDA-N.
The subject of assay [11] is OVCAR-3.
For assay [12], the system named is NCI-H522.
Assay [13] has as its system HCT-15.
Assay [14] deals with HL-60.
Assay [15] deals with SNB-75.
Assay [16] concerns SW-620.
The test system of assay [17] is SF-539.
Assay [18] deals with K562.
In assay [19] the test system is T47D.
The subject of assay [20] is SK-MEL-2.

For `N=C1C=CC(=C(c2ccc(N)cc2)c2ccc(N)cc2)C=C1`, the GI50 is 3.01 µM (inactive) in [1]; 4.05 µM (inactive) in assay [2]; 9.93 µM (inactive) in [3]; 16.2 µM (inactive) in [4]; 4.93 µM (inactive) in assay [5]; 12.5 µM (inactive) in assay [6]. Further, the GI50 in assay [7] was 3.11 µM (inactive); in [8], 3.87 µM (inactive); in assay [9], 0.982 µM (active); in assay [10], 4.84 µM (inactive); in [11] it was 10 µM (inactive); in assay [12], 2.64 µM (inactive). The GI50 in assay [13] was 12.8 µM; in [14], 3.85 µM (inactive); in assay [15], 0.519 µM (active); in assay [16] it was 3.68 µM (inactive); in assay [17], 2.02 µM (inactive); in assay [18], 2.39 µM (inactive). Further, the GI50 in assay [19] was 0.968 µM (active); in assay [20] it was 2.9 µM (inactive).
With `CC(C)OC(=O)c1ccc(NCC2=CC(=O)C=CC2=O)cc1`, the GI50 is 16.6 µM (inactive) in assay [1]; 14.5 µM (inactive) in assay [2]; 12.8 µM (inactive) in assay [3]; 13.5 µM (inactive) in assay [4]; 21.4 µM (inactive) in assay [5]; 9.91 µM (inactive) in assay [6]. Besides, the GI50 was 12.4 µM (inactive) in [7]; 15.3 µM (inactive) in assay [8]; 12.9 µM (inactive) in [9]; 15.1 µM (inactive) in assay [10]; 6.19 µM (inactive) in assay [11]; 1.69 µM (inactive) in assay [12]. Moreover, the GI50 is 12.7 µM in assay [13]; 2.2 µM (inactive) in assay [14]; 18.5 µM (inactive) in assay [15]; 11.7 µM (inactive) in assay [16]; 7.45 µM (inactive) in assay [17]; 2.35 µM (inactive) in assay [18]. Further, the results for the GI50 in assay [19] and in assay [20] were 2.25 µM (inactive) and 17 µM (inactive), respectively.
As to `O=C(O)C(=Cc1ccc(-c2ccccc2)cc1)C(=O)O`, the GI50 in assay [1] is 15.6 µM (inactive); in assay [2] it was 12.4 µM (inactive); in [3], 15.1 µM (inactive); in assay [4], 13.2 µM (inactive); in assay [5], 8.73 µM (inactive); in assay [6], 12.4 µM (inactive). The GI50 in assay [7] is 11.5 µM (inactive); in [8], 12.3 µM (inactive); in assay [9] it was 8.79 µM (inactive); in assay [10], 19.1 µM (inactive); in assay [11] it was 5.53 µM (inactive); in [12], 6.82 µM (inactive). In addition, the GI50 in assay [13] was 12.2 µM; in assay [14] it was 7.53 µM (inactive); in assay [15] it was 10.6 µM (inactive); in [16], 11.3 µM (inactive); in assay [17], 4.78 µM (inactive); in assay [18], 5.7 µM (inactive). For the same molecule, the GI50 in assay [19] is 11 µM (inactive); in [20], 6.95 µM (inactive).
As for `CCOc1ccc2nc(NC(=O)/C(CC(=O)CC(C3=C(O)c4ccccc4CC3=O)c3ccccc3)=N\O)sc2c1` (stereo not given), the GI50 in [1], in assay [2], in [3], in assay [4], in [5] and in assay [6] was > 100 µM (inactive) throughout. Moreover, the GI50 in [7], in assay [8], in assay [9], in assay [10], in assay [11] and in assay [12] was > 100 µM (inactive) each time. The GI50 in assay [13] is over 100 µM; in [14], > 100 µM (inactive); in assay [15] it was 52.1 µM (inactive); in [16] it was > 100 µM (inactive); in assay [17], > 100 µM (inactive); in assay [18], > 100 µM (inactive). Also, the GI50 in assay [19] and in assay [20] was > 100 µM (inactive) in each case.
On to `Oc1c(C(O)(c2ccccc2)c2ccc3ccccc3c2O)ccc2ccccc12`, for which the GI50 is 9.38 µM (inactive) in [1]; 15.5 µM (inactive) in assay [2]; 8.93 µM (inactive) in assay [3]; 13.2 µM (inactive) in [4]; 6.87 µM (inactive) in [5]; 11.2 µM (inactive) in assay [6]. The GI50 in assay [7] was 2.93 µM (inactive); in assay [8], 10.6 µM (inactive); in [9], 17.7 µM (inactive); in [10], 12.2 µM (inactive); in assay [11] it was 6.47 µM (inactive); in assay [12], 4.01 µM (inactive). Also, the GI50 is 8.77 µM in [13]; 3.52 µM (inactive) in [14]; 14.7 µM (inactive) in [15]; 11.2 µM (inactive) in assay [16]; 19 µM (inactive) in assay [17]; 2.88 µM (inactive) in [18]. The GI50 in assay [19] is 2.96 µM (inactive); in [20], 12.4 µM (inactive).
